Measured values: patent publication US20120046354A1, “ANTI-OXIDANT LOZENGES FOR THE PREVENTION AND TREATMENT OF RADIATION INDUCED MUCOSITIS, PRECANCEROUS LESIONS, ORAL CANCER AND OTHER ORAL CAVITY MUCOSAL DISORDERS” (priority 2010, published 2012)

Legend:
severe mucositis = conditions: 250 mg daily for 21 days then 75 mg daily; control group 38 patient-weeks, P=0.025; cited from earlier work
radiation proctopathy = experiment: randomized double-blinded trial versus placebo in patients with radiation proctopathy; format: in vivo, human; conditions: 10,000 IU by mouth for 90 days
Source text: (§1) The inventor has described a dramatic case of the patient with AIDS and anal carcinoma who developed a large radiation-induced anal ulceration with marked debility. The patient required high dose opioid therapy for control of anal pain. […] The inventor has also designed, conducted and published a randomized double-blinded trial comparing vitamin A in the form of retinyl palmitate (10,000 IU by mouth for 90 days) to placebo in patients with radiation proctopathy.

[1] = test system: radiation-induced anal ulceration; experiment: case of a patient with AIDS and anal carcinoma with radiation-induced anal ulceration, orally administered vitamin A; format: in vivo, human; conditions: single patient
Source text: as §1

[2] = test system: mucositis after chemotherapy; conditions: 1 mL topical oil (400 mg) twice daily, 18 patients; cited from earlier work
leukoplakia = test system: leukoplakia; set-up: clinical response rate / response rate among patients with biopsy-proved dysplasia: dose or concentration left out as unconfirmed; conditions: cited from earlier work
mucositis = conditions: mouthwash; cited from earlier work
wound healing = conditions: following burn injury and surgeries, laboratory animals; cited from earlier work
oral leukoplakia = conditions: topically applied; cited from earlier work
[3] = three months of therapy, placebo 10 percent

CC1=C(/C=C/C(C)=C/C=C/C(C)=C/C=C/C=C(C)/C=C/C=C(C)/C=C/C2=C(C)CCCC2(C)C)C(C)(C)CCC1 [beta-carotene]
severe mucositis (severe mucositis): 22 patient-weeks

CCCCCCCCCCCCCCCC(=O)OC/C=C(C)/C=C/C=C(C)/C=C/C1=C(C)CCCC1(C)C [retinyl palmitate]
rectal symptoms of radiation proctopathy (radiation proctopathy): significantly reduced
persistence of wound healing and symptomatic relief ([1]; after twelve week oral course): more than six
wound healing and symptomatic relief ([1]; twelve week course, orally administered): complete wound healing and symptomatic relief

vitamin E
benefit on mucosal lesions compared to soybean oil [2]: benefit

CC1=C(/C=C/C(C)=C/C=C/C(C)=C\C(=O)O)C(C)(C)CCC1 [isotretinoin, 13-cis-retinoic acid]
patients who required decreases in their dosage (leukoplakia; higher dose, 2 mg/kg per day): 47%
patients who developed conjunctivitis (leukoplakia; lower dose, 1 mg/kg per day): 29%
xeroderma (leukoplakia; lower dose, 1 mg/kg per day): common
clinical response rate (leukoplakia; [3]): 67%
response rate among patients with biopsy-proved dysplasia (leukoplakia; [3]): 54%
patients with relapse of disease (leukoplakia; within three months of discontinuation of treatment): about half

[H]/N=C(\N/C(=N/[H])NCCCCCCNC(=N)NC(=N)Nc1ccc(Cl)cc1)Nc1ccc(Cl)cc1 [chlorhexidine]
effectiveness for mucositis (mucositis): limited or possibly no effectiveness

Vitamin A
wound healing (wound healing): accelerate wound healing

O=C(c1ccccc1)c1ccc2n1CCC2C(=O)O (centres unmarked) [ketolorac]
treatment of oral leukoplakia (oral leukoplakia): did not appear to effectively treat
